The values below come from article PMC11995724, “Antibiotic target discovery by integrated phenotypic and activity-based profiling of electrophilic fragments” (Cell chemical biology, 2025).

A word on the viability: it is a read-out of living cells in per cent, often relative to untreated cells.

Molecules are shown by their SMILES.

This series can be described thus: in vitro. Particulars: human, hek293t cells.
Consider `C=CC(=O)N1CC(NC(=O)c2ccoc2CC)C(C)(C)C1` (centres unmarked) [1-L22, N-[4,4-dimethyl-1-(prop-2-enoyl)pyrrolidin-3-yl]-2-ethylfuran-3-carboxamide], for which the viability at 48 h, 25 µM turned out to be 71.3%. For `C=CC(=O)NCc1cnc(N2CCOCC2)s1` [1-M03, N-{[2-(morpholin-4-yl)-1,3-thiazol-5-yl]methyl}prop-2-enamide], the viability at 48 h, 25 µM was determined as 86.3%. For `C=CC(=O)NC1(c2cccc(F)c2)CCOCC1` [1-M04, N-[4-(3-fluorophenyl)oxan-4-yl]prop-2-enamide], the viability at 48 h, 25 µM is 71.1%.

For the compound `C=CC(=O)Nc1ccccc1-c1nnnn1C` [1-M05, N-[2-(1-methyl-1H-1,2,3,4-tetrazol-5-yl)phenyl]prop-2-enamide], the viability at 48 h, 25 µM was determined as 79.7%. For `C=CC(=O)NCCc1coc(-c2ccc(C)cc2)n1` [1-M06, N-{2-[2-(4-methylphenyl)-1,3-oxazol-4-yl]ethyl}prop-2-enamide] the value was 68.3%; for `C=CC(=O)NCc1ccc(-n2cccn2)cc1` [1-M07, N-{[4-(1H-pyrazol-1-yl)phenyl]methyl}prop-2-enamide], 81.4%; for `C=CC(=O)NC1CCC(OCc2cc(C)no2)CC1` (centres unmarked) [1-M08, N-{4-[(3-methyl-1,2-oxazol-5-yl)methoxy]cyclohexyl}prop-2-enamide], 86.5%. For `C=CC(=O)NC(C)c1nnnn1C1CC1` (centres unmarked) [1-M09, N-[1-(1-cyclopropyl-1H-1,2,3,4-tetrazol-5-yl)ethyl]prop-2-enamide] the value was 82.7%; for `C=CC(=O)N(CCO)c1ccc(C(=O)O)cc1` [1-M10, 4-[N-(2-hydroxyethyl)prop-2-enamido]benzoic acid], 96.4%; for `C=CC(=O)NCc1ccnc(N2CCN(c3ccc(F)cc3)CC2)c1` [1-M11, N-({2-[4-(4-fluorophenyl)piperazin-1-yl]pyridin-4-yl}methyl)prop-2-enamide], 71.6%. With `C=CC(=O)Nc1ncccn1` [1-M12, N-(pyrimidin-2-yl)prop-2-enamide], the viability at 48 h, 25 µM was found to be 71.5%. Turning to `C=CC(=O)Nc1cc2c(cc1Sc1ccccc1)OCCO2` [1-M13, N-[7-(phenylsulfanyl)-2,3-dihydro-1,4-benzodioxin-6-yl]prop-2-enamide], the viability at 48 h, 25 µM is 82.4%. For the compound `C=CC(=O)NCc1cccc(-n2cccn2)n1` [1-M14, N-{[6-(1H-pyrazol-1-yl)pyridin-2-yl]methyl}prop-2-enamide], the viability at 48 h, 25 µM came out at 93.2%.

Take `C=CC(=O)Nc1ccccc1C1CC1(F)F` (centres unmarked) [1-M15, N-[2-(2,2-difluorocyclopropyl)phenyl]prop-2-enamide]: the viability at 48 h, 25 µM came to 86.4%. For `C=CC(=O)Nc1cccc(C(O)C(F)(F)F)c1` (centres unmarked) [1-M16, N-[3-(2,2,2-trifluoro-1-hydroxyethyl)phenyl]prop-2-enamide] the value was 102%; for `C=CC(=O)NCC1CCCC(C2CC2)O1` (centres unmarked) [1-M17, N-[(6-cyclopropyloxan-2-yl)methyl]prop-2-enamide], 88.7%. As for `C=CC(=O)NCc1ccc(-n2ccnc2)cc1` [1-M18, N-{[4-(1H-imidazol-1-yl)phenyl]methyl}prop-2-enamide], the viability at 48 h, 25 µM worked out at 90.9%. For `C=CC(=O)Nc1c(C)cnn1CC1CC1` [1-M19, N-[1-(cyclopropylmethyl)-4-methyl-1H-pyrazol-5-yl]prop-2-enamide], the viability at 48 h, 25 µM was 94.9%. As to `C=CC(=O)Nc1ccc(C(=O)C(F)F)cc1` [1-M20, N-[4-(2,2-difluoroacetyl)phenyl]prop-2-enamide], the viability at 48 h, 25 µM turned out to be 104%. For `C=CC(=O)Nc1ncnc2c1cnn2Cc1cccc(C)c1` [1-M21, N-{1-[(3-methylphenyl)methyl]-1H-pyrazolo[3,4-d]pyrimidin-4-yl}prop-2-enamide] the value was 100%; for `C=CC(=O)NCc1nnnn1-c1ccc(F)cc1` [1-M22, N-{[1-(4-fluorophenyl)-1H-1,2,3,4-tetrazol-5-yl]methyl}prop-2-enamide], 106%. Regarding `C=CC(=O)NCc1ccccc1S(=O)(=O)NC` [1-N03, N-{[2-(methylsulfamoyl)phenyl]methyl}prop-2-enamide], the viability at 48 h, 25 µM turned out to be 92.3%.

Regarding `C=CC(=O)NC(C)c1cn(-c2ccccc2)nn1` (centres unmarked) [1-N04, N-[1-(1-phenyl-1H-1,2,3-triazol-4-yl)ethyl]prop-2-enamide], the viability at 48 h, 25 µM stood at 78.9%. As to `C=CC(=O)N1CCc2c(nnn2CCOC)C1` [1-N05, 1-[1-(2-methoxyethyl)-1H,4H,5H,6H,7H-[1,2,3]triazolo[4,5-c]pyridin-5-yl]prop-2-en-1-one], the viability at 48 h, 25 µM was 105%.

In the case of `C=CC(=O)NCc1conc1C1CCC1` [1-N06, N-[(3-cyclobutyl-1,2-oxazol-4-yl)methyl]prop-2-enamide], the viability at 48 h, 25 µM was 69.5%. For the compound `C=CC(=O)NCCc1c(C)oc2ccccc12` [1-N07, N-[2-(2-methyl-1-benzofuran-3-yl)ethyl]prop-2-enamide], the viability at 48 h, 25 µM was 119%.

Take `C=CC(=O)NC1CCN(Cc2ccc(Cl)cc2)CC1` [1-N08, N-{1-[(4-chlorophenyl)methyl]piperidin-4-yl}prop-2-enamide]: the viability at 48 h, 25 µM came to 101%. For `C=CC(=O)N(CC(C)(C)C)C1CCN(c2ccc(C#N)cn2)CC1` [1-N09, N-[1-(5-cyanopyridin-2-yl)piperidin-4-yl]-N-(2,2-dimethylpropyl)prop-2-enamide] the value was 105%; for `C=CC(=O)NC(C)(C)c1noc(CCC)n1` [1-N10, N-[2-(5-propyl-1,2,4-oxadiazol-3-yl)propan-2-yl]prop-2-enamide], 91.9%; for `C=CC(=O)N1CCCC1c1cccc(C)c1` (centres unmarked) [1-N11, 1-[2-(3-methylphenyl)pyrrolidin-1-yl]prop-2-en-1-one], 110%. For `C=CC(=O)Nc1ccc2c(=O)onc(C)c2c1` [1-N12, N-(4-methyl-1-oxo-1H-2,3-benzoxazin-6-yl)prop-2-enamide] the value was 1.1%. As to `C=CC(=O)N(Cc1cccc(F)c1F)C1CCCC(F)(F)C1` (centres unmarked) [1-N13, N-(3,3-difluorocyclohexyl)-N-[(2,3-difluorophenyl)methyl]prop-2-enamide], the viability at 48 h, 25 µM turned out to be 136%.

Turning to `C=CC(=O)Nc1ccnn1Cc1cccc(Cl)c1` [1-N14, N-{1-[(3-chlorophenyl)methyl]-1H-pyrazol-5-yl}prop-2-enamide], the viability at 48 h, 25 µM is 1.05%. For `C=CC(=O)NC1CCN(Cc2ccccc2)C1` (centres unmarked) [1-N15, N-(1-benzylpyrrolidin-3-yl)prop-2-enamide] the value was 103%. As for `C=CC(=O)N1CCC(c2ccc(OC)cc2)C1` (centres unmarked) [1-N16, 1-[3-(4-methoxyphenyl)pyrrolidin-1-yl]prop-2-en-1-one], the viability at 48 h, 25 µM worked out at 92.1%.

With `C=CC(=O)NC(C)c1nc(C2CCCCC2)no1` (centres unmarked) [1-N17, N-[1-(3-cyclohexyl-1,2,4-oxadiazol-5-yl)ethyl]prop-2-enamide], the viability at 48 h, 25 µM was determined as 102%. For `C=CC(=O)N1CCC(c2nc3ccccc3o2)CC1` [1-N18, 1-[4-(1,3-benzoxazol-2-yl)piperidin-1-yl]prop-2-en-1-one] the value was 80.1%; for `C=CC(=O)N1CCN(C(=O)c2cc(C)no2)CC1` [1-N19, 1-[4-(3-methyl-1,2-oxazole-5-carbonyl)piperazin-1-yl]prop-2-en-1-one], 102%; for `C=CC(=O)N1CCN(Cc2ccon2)CC1` [1-N20, 1-{4-[(1,2-oxazol-3-yl)methyl]piperazin-1-yl}prop-2-en-1-one], 79.6%. Regarding `C=CC(=O)N(C)Cc1ccncc1` [1-N21, N-methyl-N-[(pyridin-4-yl)methyl]prop-2-enamide], the viability at 48 h, 25 µM is 135%.

`C=CC(=O)NC1CN(C(C)=O)C1` [1-N22, N-(1-acetylazetidin-3-yl)prop-2-enamide]: the viability at 48 h, 25 µM is 73.1%. For `C=CC(=O)Nc1c(C)ccc(Cl)c1CO` [1-O03, N-[3-chloro-2-(hydroxymethyl)-6-methylphenyl]prop-2-enamide] the value was 67.5%; for `C=CC(=O)N1CCC(C(=O)Nc2[nH]nc(C(F)(F)F)c2C)CC1` [1-O04, N-[4-methyl-3-(trifluoromethyl)-1H-pyrazol-5-yl]-1-(prop-2-enoyl)piperidine-4-carboxamide], 113%; for `C=CC(=O)N1CCOC(c2noc(C(C)C)n2)C1` (centres unmarked) [1-O05, 1-{2-[5-(propan-2-yl)-1,2,4-oxadiazol-3-yl]morpholin-4-yl}prop-2-en-1-one], 87%.

Turning to `C=CC(=O)Nc1nn(C2CCCC2)c(C)c1Cl` [1-O06, N-(4-chloro-1-cyclopentyl-5-methyl-1H-pyrazol-3-yl)prop-2-enamide], the viability at 48 h, 25 µM turned out to be 78.2%.

`C=CC(=O)NCc1ccno1` [1-O07, N-[(1,2-oxazol-5-yl)methyl]prop-2-enamide]: the viability at 48 h, 25 µM was 68.4%. For `C=CC(=O)NC1CCC(c2nc(CC)no2)CC1` (centres unmarked) [1-O08, N-[4-(3-ethyl-1,2,4-oxadiazol-5-yl)cyclohexyl]prop-2-enamide] the value was 92.2%; for `C=CC(=O)Nc1cnn(-c2ccncc2)c1C(F)F` [1-O09, N-[5-(difluoromethyl)-1-(pyridin-4-yl)-1H-pyrazol-4-yl]prop-2-enamide], 67.8%; for `C=CC(=O)Nc1ccccc1Cl` [1-O10, N-(2-chlorophenyl)prop-2-enamide], 63%.

Consider `C=CC(=O)Nc1ccc2c(c1)CCO2` [1-O11, N-(2,3-dihydro-1-benzofuran-5-yl)prop-2-enamide], for which the viability at 48 h, 25 µM was found to be 87.8%. For `C=CC(=O)NCC(F)(F)c1cccnc1` [1-O12, N-[2,2-difluoro-2-(pyridin-3-yl)ethyl]prop-2-enamide] the value was 111%.

On to `C=CC(=O)Nc1ccc(C)cc1S(=O)(=O)N1CCOCC1` [1-O13, N-[4-methyl-2-(morpholine-4-sulfonyl)phenyl]prop-2-enamide], for which the viability at 48 h, 25 µM was 74.9%.

`C=CC(=O)NCc1nnc(C(F)(F)F)s1` [1-O14, N-{[5-(trifluoromethyl)-1,3,4-thiadiazol-2-yl]methyl}prop-2-enamide]: the viability at 48 h, 25 µM is 131%.
